Assay results taken from patent US20110207760A1, “SN-38 COMPOSITIONS” (priority 2010, published 2011).

Columns and labels:
[1] = Dissolution of SN-38 in aqueous SBECD at 100° C. (HPLC); format: physicochemical; settings: boiling water bath 1 hour, 24 hours room temperature
Experimental: 37.6 mL water was added to 62.4 g sodium sulfobutyl ether beta-cyclodextrin (having a substitution level of about 7, as determined by NMR, and a water content of 3.9%, as determined by Karl-Fisher method), and was mixed until homogenous. The resulting viscous liquid was filtered through a 0.2 micrometer nylon filter to produce 60% (w/w) clear aqueous solution of SBECD. The density of this solution was 1.29 g/mL.
2 mg of SN-38 was added to 4g of such 60% (w/w) aqueous SBECD, and the mixture heated in a boiling water bath for 1 hour, allowed to cool and kept at room temperature for 24 hours, and then filtered through a 0.2 micrometer nylon filter with a 1 micrometer glass fiber prefilter. A clear yellow viscous liquid was produced.
(§1) Aliquots of the resultant SN-38 composition in aqueous SBECD were diluted 6 times with water, and further diluted with 10% (w/w) aqueous SBECD to obtain samples having a concentration suitable for HPLC analysis. The samples were analyzed by HPLC using column Symmetry Shield C18 3.5 μ, 50×4.6 mm (Waters), water (0.1% TFA)—acetonitrile (0.1% TFA) gradient and UV detection at 225 nm and 260 nm. The concentrations of SN-38 in the samples were determined by comparison of the area under the peak with the results obtained from analysis of standard solutions.
4 g samples of aqueous SBECD having a concentration of 20%, 30%, 40%, 50% and 60% (w/w), respectively, were mixed with 2 mg of SN-38. The mixtures were heated in boiling water bath for 1 hour and then were kept for 24 hours at room temperature. The mixtures were then filtered through a 0.2 micrometer nylon filter and analyzed by HPLC as described in Example 1.

[2] = Dissolution of SN-38 in 60% (w/w) aqueous SBECD at 34° C. (HPLC); format: physicochemical; settings: Example 2: 60% (w/w) aqueous SBECD, 48 hours, filtered
Experimental: as §1
A sample of 4 g of 60% (w/w) aqueous SBECD was mixed with 2 mg of SN-38, and the mixture was incubated at 34° C. with constant mixing for 48 hours. The mixture was then filtered through 0.2 micrometer nylon filter and analyzed by HPLC as described in Example 1. The concentration of SN-38 in solution was 0.16 mg/g.

[3] = Physical stability of SN-38 in diluted aqueous cyclodextrin solutions (HPLC); format: physicochemical; settings: for Concentration of SN-38 relative to time 0 h: room temperature
Experimental: as §1
The SN-38 solution prepared as in the Example 1 was diluted with water, by weight, to obtain solutions containing respectively 5% SBECD, 10% SBECD, and 20% SBECD. All solutions were kept at room temperature and periodically analyzed by HPLC using the method described in the Example 1.
(§2) A solution of SN-38 in hydroxypropyl beta-cyclodextrin (HPbCD) was prepared using the procedure described in the Example 1. This solution was subsequently diluted with water, by weight, to obtain HPbCD concentration 20%. The relative change of SN-38 concentration in this solution after 70 hours was determined as described above, and is noted in Table 3 below.
as §2, with “in dimethyl” for “in hydroxypropyl”, “beta-cyclodextrin (DMbCD)” for “beta-cyclodextrin (HPbCD)”, “obtain DMbCD” for “obtain HPbCD”, “after 22.5” for “after 70”, “Table 4” for “Table 3”

[4] = Pharmacokinetics of SN-38 and SN-38G after i.v. dosing of SN-38 in 40% SBECD; format: in vivo, Female Sprague-Dawley rats; settings: female, Sprague-Dawley, rat, in vivo, iv
Experimental: Female Sprague-Dawley rats, 4 animals per group received i.v. injections of SN-38 (doses 0.65 mg/kg and 2 mg/kg) in 40% SBECD. The SN-38 solution for the treatment was prepared by the dilution of concentrated composition of the Example 1 with water. The blood plasma samples were collected from each group of animals, extracted using liquid extraction with cold methanol/acetonitrile mixture (1:1 v/v), and analyzed using a HPLC method with fluorescent detection. The results, including levels of SN-38 and SN-38G in plasma and calculated values of area under the curve (AUC) for SN-38 and SN-38G are presented in Tables 5 and 6 below.

[5] = room temperature; cited from earlier work

- SN-38 concentration ([1]; 20% SBECD): 0.03 mg/g of solution
- SN-38 concentration ([1]; 30% SBECD): 0.07 mg/g of solution
- SN-38 concentration ([1]; 40% SBECD): 0.13 mg/g of solution
- SN-38 concentration ([1]; 50% SBECD): 0.23 mg/g of solution
- SN-38 concentration ([1]; 60% SBECD): 0.40 mg/g of solution
- concentration of SN-38 in the product solution ([1]; Example 1: 60% (w/w) aqueous SBECD, filtered): 0.40 mg/g of composition
- concentration of SN-38 in solution [2]: 0.16 mg/g
- Concentration of SN-38 relative to time 0 h ([3]; 5% SBECD, 0 h): 100.0
- Concentration of SN-38 relative to time 0 h ([3]; 5% SBECD, 5 h): 96.6
- Concentration of SN-38 relative to time 0 h ([3]; 5% SBECD, 23 h): 91.4
- Concentration of SN-38 relative to time 0 h ([3]; 5% SBECD, 47 h): 85.2
- Concentration of SN-38 relative to time 0 h ([3]; 5% SBECD, 71 h): 79.2
- Concentration of SN-38 relative to time 0 h ([3]; 5% SBECD, 98 h): 77.9
- Concentration of SN-38 relative to time 0 h ([3]; 10% SBECD, 0 h): 100.0
- Concentration of SN-38 relative to time 0 h ([3]; 10% SBECD, 5 h): 97.9
- Concentration of SN-38 relative to time 0 h ([3]; 10% SBECD, 23 h): 94.9
- Concentration of SN-38 relative to time 0 h ([3]; 10% SBECD, 47 h): 90.8
- Concentration of SN-38 relative to time 0 h ([3]; 10% SBECD, 71 h): 87.7
- Concentration of SN-38 relative to time 0 h ([3]; 10% SBECD, 98 h): 85.5
- relative change of SN-38 concentration ([3]; 20% DMbCD, 0 h): 100.0
- relative change of SN-38 concentration ([3]; 20% DMbCD, 22.5 h): 42.5
- relative change of SN-38 concentration ([3]; 20% HPbCD, 0 h): 100.0
- relative change of SN-38 concentration ([3]; 20% HPbCD, 70 h): 63.0
- Concentration of SN-38 relative to time 0 h ([3]; 20% SBECD, 0 h): 100.0
- Concentration of SN-38 relative to time 0 h ([3]; 20% SBECD, 5 h): 99.5
- Concentration of SN-38 relative to time 0 h ([3]; 20% SBECD, 23 h): 97.6
- Concentration of SN-38 relative to time 0 h ([3]; 20% SBECD, 47 h): 96.3
- Concentration of SN-38 relative to time 0 h ([3]; 20% SBECD, 71 h): 95.1
- Concentration of SN-38 relative to time 0 h ([3]; 20% SBECD, 98 h): 93.2
- AUC ([4]; 0.65 mg/kg): 0.106 µg·h/mL
- Ratio AUC SN-38/SN-38G ([4]; 0.65 mg/kg): 0.39
- concentration at 0.17 h ([4]; 0.65 mg/kg): 0.157 µg/mL
- concentration at 0.5 h ([4]; 0.65 mg/kg): 0.0413 µg/mL
- concentration at 0.75 h ([4]; 0.65 mg/kg): 0.0261 µg/mL
- concentration at 1 h ([4]; 0.65 mg/kg): 0.0182 µg/mL
- concentration at 3 h ([4]; 0.65 mg/kg): 0.0058 µg/mL
- concentration at 6 h ([4]; 0.65 mg/kg): 0.0012 µg/mL
- AUC ([4]; 2 mg/kg): 0.323 µg·h/mL
- concentration at 0.17 h ([4]; 2 mg/kg): 0.625 µg/mL
- concentration at 0.5 h ([4]; 2 mg/kg): 0.157 µg/mL
- concentration at 0.75 h ([4]; 2 mg/kg): 0.0514 µg/mL
- concentration at 1 h ([4]; 2 mg/kg): 0.0298 µg/mL
- concentration at 3 h ([4]; 2 mg/kg): 0.0055 µg/mL
- concentration at 6 h ([4]; 2 mg/kg): 0.0053 µg/mL
Compound: CCc1c2c(nc3ccc(O)cc13)-c1cc3c(c(=O)n1C2)COC(=O)[C@]3(O)CC [SN-38, (4S)-4,11-Diethyl-4,9-dihydroxy-1H-pyrano[3′,4′:6,7]indolizino[1,2-b]quinoline-3,14(4H,12H)dione]
- solubility in water [5]: about 0.00008 mg/mL
